Target: T1, rhSphK1 (recombinant human sphingosine kinase 1) (Homo sapiens, UniProt Q9NYA1)
T1 construct: gene SPHK1; commercial recombinant human enzyme from two manufacturers
Experiment: S1P formation by LC-MS/MS
Type: biochemical
Settings: […] sphingosine, […] ATP, […] MgCl2, […] °C, […] h; range over two enzyme sources

T1 sequence (Q9NYA1 whole entry): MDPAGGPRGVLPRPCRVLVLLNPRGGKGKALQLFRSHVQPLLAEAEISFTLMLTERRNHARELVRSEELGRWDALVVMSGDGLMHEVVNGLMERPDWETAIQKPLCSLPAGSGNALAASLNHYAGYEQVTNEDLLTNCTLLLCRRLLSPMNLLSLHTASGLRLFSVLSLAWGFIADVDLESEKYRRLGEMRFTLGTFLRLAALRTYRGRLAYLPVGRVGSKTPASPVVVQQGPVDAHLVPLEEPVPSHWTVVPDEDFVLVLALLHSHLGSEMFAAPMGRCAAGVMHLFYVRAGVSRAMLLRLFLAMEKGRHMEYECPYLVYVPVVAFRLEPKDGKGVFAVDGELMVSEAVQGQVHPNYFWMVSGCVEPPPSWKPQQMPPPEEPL

How did the “% reduction of S1P formation at 50 μM” value turn out when O=C(NCc1ccncc1)C12CC3CC(C1)CC(c1ccc(Cl)cc1)(C3)C2 [ABC294640] was run?
Its value is 32-34%.
